Patent US9139577B2, “Sulfoximine substituted quinazolines for pharmaceutical compositions” (Boehringer Ingelheim International GmbH, priority 2013, dated 2015)

Legend:
MNK1 = MNK1 (Homo sapiens (Human), UniProt Q9BUB5); test: MNK1 in vitro kinase assay (Assay 3), Z'-LYTE; format: biochemical; settings: for inhibition at 1 µM: compound concentration of 1 μM, read-out: MNK1 % INH
From the text: C. MNK1 In vitro Kinase Assay (Assay 3)
MNK1 Data can be obtained from the MNK1 Z′-LYTE® assay. The MNK1 Z′-LYTE® screening protocol and assay conditions are also described on www.invitrogen.com.
The assay is described as follows:
The Z′-LYTE® biochemical assay employs a fluorescence-based, coupled-enzyme format and is based on the differential sensitivity of phosphorylated and non-phosphorylated peptides to proteolytic cleavage. The peptide substrate is labeled with two fluorophores—one at each end—that make up a FRET pair.
In the primary reaction, the kinase transfers the gamma-phosphate of ATP to a single tyrosine, serine or threonine residue in a synthetic FRET-peptide. In the secondary reaction, a site-specific protease recognizes and cleaves non-phosphorylated FRET-peptides. Phosphorylation of FRET-peptides suppresses cleavage by the Development Reagent. Cleavage disrupts FRET between the donor (i.e., coumarin) and acceptor (i.e., fluorescein) fluorophores on the FRET-peptide, whereas uncleaved, phosphorylated FRET-peptides maintain FRET. A ratiometric method, which calculates the ratio (the Emission Ratio) of donor emission to acceptor emission after excitation of the donor fluorophore at 400 nm, is used to quantitate reaction progress, as shown in the equation below.
ASSAY SETUP: The inhibition of kinase activity of MNK1a was assessed using pre-activated GST-MNK1a. The 2×MKNK1 (MNK1) mixture is prepared in 50 mM HEPES pH 7.5, 0.01% BRIJ-35, 10 mM MgCl2, 4 mM MnCl2, 1 mM EGTA, 2 mM DTT.
The Test Compounds are screened in 1% DMSO (final) in the well.
All Peptide/Kinase Mixtures are diluted to a 2× working concentration in the MNK1 Kinase Buffer.
All ATP Solutions are diluted to a 4× working concentration in Kinase Buffer (50 mM HEPES pH 7.5, 0.01% BRIJ-35, 10 mM MgCl2, 1 mM EGTA).
Development Reagent Solution:
The Development Reagent is diluted in Development Buffer
1. 2.5 μL—4× Test Compound
2. 5 μL—2× Peptide/Kinase Mixture
5. 60-minute Kinase Reaction incubation at room temperature
6. 5 μl—Development Reagent Solution
8. 60-minute Development Reaction incubation at room temperature
9. Read on fluorescence plate reader and analyze the data
The following equations are used for each set of data points: […]
Correction for Background Fluorescence: FlSample-FlTCFl Ctl
% Phosphorylation (% Phos): 1−((Emission Ratio×F100%)−C100%)/((C0%−C100%)+[Emission Ratio×(F100%−F0%)])*100%
% Inhibition: 1−(% PhosSample/% Phos0% Inhibition Ctl)*100
Fl=Fluorescence Intensity
C100%=Average Coumarin emission signal of the 100% Phos. Control
C0%=Average Coumarin emission signal of the 0% Phos. Control
F100%=Average Fluorescein emission signal of the 100% Phos. Control
F0%=Average Fluorescein emission signal of the 0% Phos. Control
SelectScreen® Kinase Profiling Service uses XLfit from IDBS.

MNK2a = MNK2a (Homo sapiens (Human), UniProt Q9HBH9); test: MNK2a in vitro kinase assay (Assay 2), ADP-Glo; format: biochemical; settings: read-out: MNK2 IC50
Sequence of MNK2a (Q9HBH9 whole entry): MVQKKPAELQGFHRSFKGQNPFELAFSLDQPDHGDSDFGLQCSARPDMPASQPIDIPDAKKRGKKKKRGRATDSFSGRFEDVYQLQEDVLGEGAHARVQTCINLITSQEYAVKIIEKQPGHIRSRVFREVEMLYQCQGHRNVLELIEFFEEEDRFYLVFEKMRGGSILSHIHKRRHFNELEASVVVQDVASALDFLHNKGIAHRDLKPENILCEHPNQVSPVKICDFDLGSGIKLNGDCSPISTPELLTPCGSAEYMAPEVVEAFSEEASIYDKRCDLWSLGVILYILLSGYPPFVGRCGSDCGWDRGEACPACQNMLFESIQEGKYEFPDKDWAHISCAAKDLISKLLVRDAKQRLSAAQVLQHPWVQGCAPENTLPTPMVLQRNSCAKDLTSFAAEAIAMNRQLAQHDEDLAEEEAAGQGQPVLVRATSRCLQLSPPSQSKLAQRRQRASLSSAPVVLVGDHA

Sequence of MNK1 (Q9BUB5 other isoform, or with tags, fused parts or gaps): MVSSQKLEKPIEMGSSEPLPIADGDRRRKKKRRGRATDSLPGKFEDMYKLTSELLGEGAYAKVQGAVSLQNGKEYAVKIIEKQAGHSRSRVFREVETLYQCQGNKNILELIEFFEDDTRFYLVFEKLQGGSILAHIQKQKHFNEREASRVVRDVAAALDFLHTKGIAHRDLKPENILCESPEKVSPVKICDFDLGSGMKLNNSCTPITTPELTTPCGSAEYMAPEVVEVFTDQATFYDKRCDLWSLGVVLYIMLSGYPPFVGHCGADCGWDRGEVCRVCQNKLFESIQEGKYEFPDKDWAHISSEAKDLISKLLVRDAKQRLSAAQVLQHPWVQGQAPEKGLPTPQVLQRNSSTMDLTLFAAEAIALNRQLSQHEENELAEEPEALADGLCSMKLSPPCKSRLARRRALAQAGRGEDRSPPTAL

Row | Compound | inhibition at 1 µM (MNK1) [%] | IC50 (MNK2a) [nM] | IC50 (MNK1) [nM]
1 | Cc1cc(N=S(C)(C)=O)cc2ncnc(Nc3ccc(F)cc3OC(C)c3ccncc3)c12 (centres unmarked) [Example 3.046] | 97 | 2 | –
2 | C[C@@H](Oc1cc(F)ccc1Nc1ncnc2cc(N=S(C)(C)=O)cc(F)c12)C(=O)NCC(F)(F)F [Example 3.049] | – | 2 | 68
3 | Cc1cc(N=S(C)(C)=O)cc2ncnc(Nc3ccc(F)cc3O[C@H](C)C(=O)NC(C(F)(F)F)C(F)(F)F)c12 [Example 3.054] | 58 | 1 | 51
4 | Cc1cc(N=S(C)(C)=O)cc2ncnc(Nc3ccc(F)cc3OC(CF)CF)c12 [Example 3.001] | – | 2 | 60
5 | CS(C)(=O)=Nc1cc(F)c2c(Nc3ccc(F)cc3OC(CF)CF)ncnc2c1 [Example 1.018] | 93 | 6 | –
6 | CS(C)(=O)=Nc1cc(C2CC2)c2c(Nc3ccc(F)cc3OC(CF)CF)ncnc2c1 [Example 1.022] | 79 | 3 | –
7 | Cc1cc([C@@H](C)Oc2ncccc2Nc2ncnc3cc(N=S(C)(C)=O)cc(C)c23)on1 [Example 2.018] | – | 1 | 34
8 | Cc1cc(N=S(C)(C)=O)cc2ncnc(Nc3ccc(F)cc3OC(C)C(C)(C)O)c12 (centres unmarked) [Example 2.003] | 76 | 13 | –
9 | Cc1cc(N=S(C)(C)=O)cc2ncnc(Nc3ccc(F)cc3OC(C)C)c12 [Example 2.011] | 94 | 2 | –
10 | Cc1cc(N=S(C)(C)=O)cc2ncnc(Nc3ccc(F)cc3OC(C)c3cccnc3)c12 (centres unmarked) [Example 3.007] | 96 | 9 | –
11 | Cc1cc(COc2cc(F)ccc2Nc2ncnc3cc(N=S(C)(C)=O)cc(C)c23)no1 [Example 3.009] | 95 | 7 | –
12 | Cc1cc(C(C)Oc2cc(C(N)=O)ccc2Nc2ncnc3cc(N=S(C)(C)=O)cc(C)c23)on1 (centres unmarked) [Example 1.012] | 96 | 6 | –

Now from value to compound:

Row | inhibition at 1 µM (MNK1) [%] | IC50 (MNK2a) [nM] | IC50 (MNK1) [nM] | Compound
13 | 93 | 6 | – | Cc1cc(N=S(C)(C)=O)cc2ncnc(Nc3ccc(F)cc3O[C@H](C)C(=O)NCC(C)(C)O)c12 [Example 4.069]
14 | 88 | 7 | – | CC(=O)NC[C@H](C)Oc1cc(F)ccc1Nc1ncnc2cc(N=S(C)(C)=O)cc(C)c12 [Example 5.002]
15 | 82 | 5 | – | Cc1cc(N=S2(=O)CCCC2)cc2ncnc(Nc3ccc(F)cc3O[C@H](C)C(=O)N(C)C)c12 [Example 4.051]
16 | 62 | 28 | – | Cc1cc(N=S(C)(C)=O)cc2ncnc(Nc3ccc(F)cc3O[C@H](C)CNC(=O)C(F)(F)F)c12 [Example 5.010]
17 | 97 | 1 | – | Cc1cc(N=S2(=O)CCCC2)cc2ncnc(Nc3ccc(F)cc3O[C@H](C)C(=O)NC(C)C)c12 [Example 4.042]
18 | 86 | 4 | – | Cc1cc(N=S2(=O)CCCC2)cc2ncnc(Nc3ccc(F)cc3O[C@H](C)C(=O)N(C)CCO)c12 [Example 4.028]
19 | 98 | 2 | – | CCC(C)NC(=O)[C@@H](C)Oc1cc(F)ccc1Nc1ncnc2cc(N=S(C)(C)=O)cc(C)c12 (some centres unmarked) [Example 4.048]
20 | 56 | 10 | – | Cc1cc(N=S2(=O)CCCC2)cc2ncnc(Nc3ccc(F)cc3O[C@H](C)C(=O)N(C)CCc3ccccc3)c12 [Example 4.063]
21 | 95 | 2 | – | CC(=O)N1CCS(=O)(=Nc2cc(C)c3c(Nc4ccc(F)cc4O[C@H](C)c4cc(C)no4)ncnc3c2)CC1 [Example 5.005]
22 | 61 | 56 | – | CCC(=O)NC[C@@H](C)Oc1cc(F)ccc1Nc1ncnc2cc(N=S(C)(C)=O)cc(C)c12 [Example 5.012]
23 | 70 | – | – | COC1CCN(C(=O)[C@@H](C)Oc2cc(F)ccc2Nc2ncnc3cc(N=S(C)(C)=O)cc(C)c23)CC1 [Example 4.073]
24 | 45 | – | – | Cc1cc(N=S(C)(C)=O)cc2ncnc(Nc3ccc(F)cc3O[C@H](C)C(=O)N(C)CCc3ccccc3)c12 [Example 4.037]
